Assay results reported in patent US11618746B2, “Inhibitors of APOL1 and methods of using same” (Vertex Pharmaceuticals Incorporated, priority 2018, dated 2023).

target: T1, G1 APOL1 (Homo sapiens, UniProt O14791, I384M/S342G); experiment: Acute APOL1 Thallium Assay with inducible stable clones of HEK 293 cells; assay type: cell-based; conditions: HEK T-Rex tetracycline-inducible cells expressing G1 APOL1 (clone G1 DC3.25); inhibition of thallium flux rate
T1 construct: expressed in transfected cells
T1 sequence (O14791 28-398 S342G/I384M): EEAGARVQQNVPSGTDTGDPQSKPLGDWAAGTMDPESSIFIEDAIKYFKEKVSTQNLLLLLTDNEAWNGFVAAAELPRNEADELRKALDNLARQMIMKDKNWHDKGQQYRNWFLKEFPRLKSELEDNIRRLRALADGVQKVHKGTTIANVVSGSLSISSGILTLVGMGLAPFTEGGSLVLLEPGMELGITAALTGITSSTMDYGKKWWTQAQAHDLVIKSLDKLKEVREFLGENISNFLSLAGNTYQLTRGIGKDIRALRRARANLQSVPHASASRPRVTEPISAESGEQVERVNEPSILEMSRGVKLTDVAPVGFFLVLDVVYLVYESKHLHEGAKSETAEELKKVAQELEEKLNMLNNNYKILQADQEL
How it was run: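 HEK293 T-Rex cells with tetracycline-inducible G1 APOL1 (clone DC3.25), 26000 cells per well, induced with tetracycline at plating and incubated at 37° C, 5% CO2. Pore activity read on FLIPR as Tl+ influx via fluorescence of AM-ester-loaded thallium-sensitive dye.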

Row | SMILES | IC50
1 | O=C(CCc1c(-c2ccc(F)cc2)[nH]c2ccc(F)cc12)N[C@H]1CCNC1=O [Compound 47] | < 250 nM
2 | O=C(CCc1c(-c2ccc(C(F)F)cc2)[nH]c2ccccc12)N[C@@H]1C(=O)NC[C@H]1O [Compound 131, 3-[2-[4-(difluoromethyl)phenyl]-1H-indol-3-yl]-N-[(3S,4R)-4-hydroxy-2-oxo-pyrrolidin-3-yl]propanamide] | < 250 nM
3 | O=C(CCc1c(-c2ccccc2)[nH]c2ccccc12)N[C@@H]1C(=O)NC[C@H]1O [Compound 86] | < 250 nM
4 | O=C(CCc1c(-c2ccc(F)cc2)[nH]c2ccc(F)cc12)NC1CCNC1=O (stereo not shown) [Compound 48] | < 250 nM
5 | O=C(CCc1c(-c2ccc(F)cc2)[nH]c2c(F)cc(Cl)cc12)N[C@@H]1C(=O)NC[C@H]1O [Compound 30] | < 250 nM
6 | O=C1NC[C@@H](O)[C@@H]1NC(=O)C(F)(F)Cc1c(-c2ccc(F)cc2)[nH]c2c(F)cc(F)cc12 [Compound 95, 3-[5,7-difluoro-2-(4-fluorophenyl)-1H-indol-3-yl]-2,2-difluoro-N-[(3S,4R)-4-hydroxy-2-oxo-pyrrolidin-3-yl]propanamide] | < 250 nM
7 | O=C1C[C@@H](NC(=O)CCc2c(-c3ccc(F)cc3)[nH]c3c(F)cc(F)cc23)C(=O)N1 [Compound 16] | 250 to 1000 nM
8 | O=C(CCc1c(-c2ccccc2)[nH]c2ccc(F)cc12)N[C@@H]1C(=O)NC[C@H]1O [Compound 51] | < 250 nM
9 | O=C(CCc1c(-c2ccccc2)[nH]c2c(F)cccc12)N[C@@H]1C(=O)NC[C@H]1O [Compound 61] | < 250 nM
10 | O=C(CCc1c(-c2ccccc2)[nH]c2ccc(F)cc12)N[C@H]1CCNC1=O [Compound 52] | < 250 nM
11 | O=C(CCc1c(-c2ccccc2)[nH]c2c(F)cc(F)cc12)N[C@@H]1C(=O)NC[C@H]1O [Compound 26] | < 250 nM
12 | Cc1c(F)c(F)cc2c(CCC(=O)N[C@@H]3C(=O)NC[C@H]3O)c(-c3ccc(F)cc3)[nH]c12 [Compound 98, 3-[5,6-difluoro-2-(4-fluorophenyl)-7-methyl-1H-indol-3-yl]-N-[(3S,4R)-4-hydroxy-2-oxo-pyrrolidin-3-yl]propanamide] | < 250 nM
13 | Cc1ccc2[nH]c(-c3ccc(Br)cc3)c(CCC(=O)N[C@H]3CCNC3=O)c2c1 [Compound 43, 3-[2-(4-bromophenyl)-5-methyl-1H-indol-3-yl]-N-[(3S)-2-oxopyrrolidin-3-yl]propanamide] | < 250 nM
14 | O=C(CCc1c(-c2ccccc2)[nH]c2cc(F)ccc12)N[C@@H]1C(=O)NC[C@H]1O [Compound 109, 3-(6-fluoro-2-phenyl-1H-indol-3-yl)-N-[(3S,4R)-4-hydroxy-2-oxo-pyrrolidin-3-yl]propanamide] | < 250 nM
15 | O=C(CCc1c(-c2ccc(Cl)cc2)[nH]c2ccccc12)N[C@@H]1C(=O)NC[C@H]1O [Compound 128, 3-[2-(4-chlorophenyl)-1H-indol-3-yl]-N-[(3S,4R)-4-hydroxy-2-oxo-pyrrolidin-3-yl]propanamide] | < 250 nM
16 | O=C(CCc1c(-c2ccc(OC(F)F)cc2)[nH]c2c(F)cc(F)cc12)N[C@@H]1C(=O)NC[C@H]1O [Compound 102] | < 250 nM

Row | SMILES | IC50
17 | O=C1C[C@H](NC(=O)CCc2c(-c3ccc(F)cc3)[nH]c3c(F)cc(F)cc23)C(=O)N1 [Compound 5] | 250 to 1000 nM
18 | O=C(CCc1c(-c2ccc(F)cc2)[nH]c2c(F)cc(C(F)(F)F)cc12)N[C@@H]1C(=O)NC[C@H]1O [Compound 101, 3-[7-fluoro-2-(4-fluorophenyl)-5-(trifluoromethyl)-1H-indol-3-yl]-N-[(3S,4R)-4-hydroxy-2-oxo-pyrrolidin-3-yl]propanamide] | < 250 nM
19 | O=C(CCc1c(-c2ccc(F)cc2)[nH]c2c(F)cc(F)cc12)N[C@H]1C[C@@H](CO)NC1=O [Compound 7] | > 1000 nM
20 | N#Cc1ccc(-c2[nH]c3ccccc3c2CCC(=O)N[C@@H]2C(=O)NC[C@H]2O)cc1 [Compound 116, 3-[2-(4-cyanophenyl)-1H-indol-3-yl]-N-[(3S,4R)-4-hydroxy-2-oxo-pyrrolidin-3-yl]propanamide] | < 250 nM
21 | O=C(CCc1c(-c2ccc(F)cc2)[nH]c2c(F)c(F)ccc12)N[C@@H]1C(=O)NC[C@H]1O [Compound 58] | < 250 nM
22 | CC1C[C@H](NC(=O)CCc2c(-c3ccc(F)cc3)[nH]c3c(F)cc(F)cc23)C(=O)N1 (mixture of isomers) [Compound 6] | 250 to 1000 nM
23 | O=C(CCc1c(-c2ccccc2)[nH]c2cc(F)cc(F)c12)N[C@@H]1C(=O)NC[C@H]1O [Compound 85] | < 250 nM
24 | O=C(CCc1c(-c2ccc(F)cc2)[nH]c2ccc(O)cc12)N[C@H]1CCNC1=O [Compound 55, 3-[2-(4-fluorophenyl)-5-hydroxy-1H-indol-3-yl]-N-[(3S)-2-oxopyrrolidin-3-yl]propanamide] | > 1000 nM
25 | O=C(CCc1c(-c2ccc(F)cc2)[nH]c2c(Cl)cc(F)cc12)N[C@@H]1C(=O)NC[C@H]1O [Compound 36] | < 250 nM
26 | O=C(CCc1c(-c2ccc(F)cc2)[nH]c2c(F)ccc(F)c12)N[C@H]1CCNC1=O [Compound 78] | > 1000 nM
27 | Cc1c(F)c(F)cc2c(CCC(=O)N[C@@H]3C(=O)NC[C@H]3O)c(-c3ccccc3)[nH]c12 [Compound 99, 3-(5,6-difluoro-7-methyl-2-phenyl-1H-indol-3-yl)-N-[(3S,4R)-4-hydroxy-2-oxo-pyrrolidin-3-yl]propanamide] | < 250 nM
28 | Cc1cc(F)c2[nH]c(-c3ccc(F)cc3)c(CCC(=O)N[C@@H]3C(=O)NC[C@H]3O)c2c1 [Compound 29] | < 250 nM
29 | O=C(CCc1c(-c2ccc(F)cc2)[nH]c2c(OC(F)F)cc(F)cc12)N[C@@H]1C(=O)NC[C@H]1O [Compound 107] | < 250 nM
30 | O=C(CCc1c(-c2ccccc2)[nH]c2c(F)c(F)ccc12)N[C@@H]1C(=O)NC[C@H]1O [Compound 59] | < 250 nM
31 | O=C(CCc1c(-c2ccc(F)cc2)[nH]c2ccc(OCc3ccccc3)cc12)N[C@H]1CCNC1=O [Compound 54, 3-[5-benzyloxy-2-(4-fluorophenyl)-1H-indol-3-yl]-N-[(3S)-2-oxopyrrolidin-3-yl]propanamide] | 250 to 1000 nM
